Laboratory results taken from patent US20100316575A1, “MODULATING BODY WEIGHT” (priority 2008, published 2010).

Biological target: T1, KATP channels (Mus musculus, UniProt P70170+Q61743)
T1 construct: Pacing perfused hearts isolated from WT and Kir6.2-KO mice; from tissue; host or cells: isolated, retrogradely perfused and paced hearts of wild-type mice
Experiment: Rate-dependent action potential duration (APD90) in paced, perfused isolated hearts
Set-up: species or system mice
Conditions: isolated perfused paced WT mouse hearts, KATP-channel blockade with glyburide, FIG. 5B
Excerpt: FIG. 5. […] The KATP channel-dependent component in rate-dependent action potential shortening was verified in WT hearts following KATP-channel blockade with the sulfonylurea blocker glyburide (FIG. 5B). […] Maximal oxygen consumption (V O2max), corresponding to the highest tolerated workload, reflects the maximal rate of energy production and the ability of the cardiovascular system to supply oxygen. Kir6.2-KO and WT mice achieved the same level of V O2max reflecting their equivalent oxidative phosphorylation potential. […] This was associated with high lactate levels in the blood (FIG. 5E), indicating compromise of the cardiovascular system. Activity-related energy expenditure largely reflects the performance of cardiac and skeletal muscle, tissues with abundant KATP channel expression. Accordingly, cardiac muscle was used as a model of striated musculature. As cardiac function and associated energy consumption depends on electrical determinants, the contribution of KATP channels in heart rate-dependent modulation of action potential duration and rate of oxygen consumption were tested. Telemetry recording of cardiac activity defined that both WT and Kir6.2-KO mice display a heart rate profile with a 400 to 800 beats per minute range (FIG. 5A). […]

T1 sequence (Q61743 whole entry, the tested form may be a part): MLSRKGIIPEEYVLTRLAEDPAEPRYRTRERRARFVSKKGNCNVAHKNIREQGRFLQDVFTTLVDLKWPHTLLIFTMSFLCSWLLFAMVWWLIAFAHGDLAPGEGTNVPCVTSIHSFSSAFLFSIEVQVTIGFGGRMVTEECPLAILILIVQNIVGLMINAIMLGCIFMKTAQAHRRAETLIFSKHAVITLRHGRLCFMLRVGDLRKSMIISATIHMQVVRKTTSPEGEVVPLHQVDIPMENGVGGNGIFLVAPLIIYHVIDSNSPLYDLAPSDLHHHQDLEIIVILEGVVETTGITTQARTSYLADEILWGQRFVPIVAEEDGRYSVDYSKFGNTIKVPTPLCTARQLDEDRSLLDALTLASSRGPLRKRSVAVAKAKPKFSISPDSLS
T1 sequence (P70170 whole entry, the tested form may be a part): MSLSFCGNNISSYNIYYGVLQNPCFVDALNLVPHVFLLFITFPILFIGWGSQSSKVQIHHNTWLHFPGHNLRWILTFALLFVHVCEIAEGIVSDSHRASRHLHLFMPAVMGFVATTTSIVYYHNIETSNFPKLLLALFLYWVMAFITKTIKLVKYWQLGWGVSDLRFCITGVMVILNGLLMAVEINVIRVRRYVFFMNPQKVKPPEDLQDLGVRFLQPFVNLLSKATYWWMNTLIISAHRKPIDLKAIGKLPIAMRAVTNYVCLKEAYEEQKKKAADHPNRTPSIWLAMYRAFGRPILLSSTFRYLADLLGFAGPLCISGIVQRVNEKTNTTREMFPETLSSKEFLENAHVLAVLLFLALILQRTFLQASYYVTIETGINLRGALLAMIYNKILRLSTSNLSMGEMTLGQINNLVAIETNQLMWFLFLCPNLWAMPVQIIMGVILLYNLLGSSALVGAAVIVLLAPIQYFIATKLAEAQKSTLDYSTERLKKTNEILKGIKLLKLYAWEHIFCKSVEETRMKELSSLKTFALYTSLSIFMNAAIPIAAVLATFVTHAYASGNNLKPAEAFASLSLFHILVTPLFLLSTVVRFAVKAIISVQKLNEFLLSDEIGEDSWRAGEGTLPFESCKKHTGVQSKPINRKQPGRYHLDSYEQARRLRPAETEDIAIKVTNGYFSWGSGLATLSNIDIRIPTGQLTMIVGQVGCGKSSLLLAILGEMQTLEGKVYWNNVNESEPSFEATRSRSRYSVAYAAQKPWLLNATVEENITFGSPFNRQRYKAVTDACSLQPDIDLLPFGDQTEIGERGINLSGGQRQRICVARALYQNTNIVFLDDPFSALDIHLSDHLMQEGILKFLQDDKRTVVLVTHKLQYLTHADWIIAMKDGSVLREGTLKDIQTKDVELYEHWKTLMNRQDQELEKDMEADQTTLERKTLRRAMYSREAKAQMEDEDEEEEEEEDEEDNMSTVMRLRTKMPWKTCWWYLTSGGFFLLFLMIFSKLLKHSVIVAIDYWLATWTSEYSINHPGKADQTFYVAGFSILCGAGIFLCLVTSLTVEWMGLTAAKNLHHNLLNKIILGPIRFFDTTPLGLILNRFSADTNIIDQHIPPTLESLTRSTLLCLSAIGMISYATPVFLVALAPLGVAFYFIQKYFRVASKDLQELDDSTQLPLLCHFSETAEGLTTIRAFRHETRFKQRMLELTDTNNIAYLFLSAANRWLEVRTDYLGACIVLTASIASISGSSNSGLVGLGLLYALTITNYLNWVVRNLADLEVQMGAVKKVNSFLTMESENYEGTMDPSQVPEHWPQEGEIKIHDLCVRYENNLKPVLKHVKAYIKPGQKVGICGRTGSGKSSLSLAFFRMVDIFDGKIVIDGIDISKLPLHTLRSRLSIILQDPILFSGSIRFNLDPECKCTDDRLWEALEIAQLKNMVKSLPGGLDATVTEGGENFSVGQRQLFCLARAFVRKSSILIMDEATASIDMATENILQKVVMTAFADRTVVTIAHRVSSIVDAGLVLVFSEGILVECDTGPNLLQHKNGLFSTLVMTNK

Compound: COc1ccc(Cl)cc1C(=O)NCCc1ccc(S(=O)(=O)NC(=O)NC2CCCCC2)cc1 [glyburide]
- KATP channel-dependent component in rate-dependent action potential shortening (monophasic APD90): verified
